The values below come from patent US11975048B2, “Long-acting fatty acid-conjugated GnRH derivatives and pharmaceutical compositions containing same” (NOVEL PHARMA INC., priority 2019, dated 2024).

The test system of one series is ovary of female rats. The series can be described thus: Assay for ovarian morphological change (H&E stained ovaries). The following applies: single subcutaneous dose 12.5 mg/kg (as cyclodextrin compositions), day 28, versus non-treated and methyl-β-cyclodextrin groups. The format is in vivo. On the procedure: Experiments were carried out to examine whether or not the fatty acid-conjugated GnRH derivatives maintain the functional characteristics and incur a morphological change in the ovary.
The pharmaceutical compositions of Examples 9, 10, 13, 14, 15, and 16 were each subcutaneously injected at a single dose of 12.5 mg/kg once at the back of the neck to female rats 9 weeks old. Rats to which no drugs were administered were used as a non-treated control while an aqueous solution of 3 mg of methyl-β-cyclodextrin was injected to a negative control. Each group consisted of 3 rats.
On day 28 after injection, the rats were subjected to an autopsy to excise the ovaries which were then stained with hematoxylin-eosin (H&E stain).
Briefly, ovaries were stained with H&E and observed as follows.
11. After finishing the above procedures, the specimen slides were scanned using a ScanScope® AT slider scanner (Aperio) and the images thus stored were analyzed using the ImageScope program (Aperio). The scanned images are depicted in FIGS. 6 to 9.
It is known that when administered to rats, a GnRH agonist reduces the formation of secondary follicles and Graafian follicles (see: Mohammadbeigi et al., Short-term Administration of Gonadotropin-releasing Hormone Agonist (Buserelin) Induces Apoptosis in Rat Ovarian Developmental Follicles, July 2016). In this experiment, secondary and Graafian follicles on ovary images in each treatment group were indicted by arrows to examine whether the number of the follicles is reduced or not.

For the next series, the system named is DU-145. The series can be described thus: Cell viability assay (CCK-8), prostate cancer cell line DU-145. It counts as cell-based. On the procedure:
(§1) GnRH derivatives are clinically applied to the therapy of diseases including breast cancer, prostate cancer, endometriosis, central precocious puberty, and the like. […] An assay for cell viability was performed using the Cell Counting Kit-8 (CCK-8, manufactured by DOJINDO). Each of the cell lines was separated from the T75 flask by trypsinization and transferred to 96-well plates at a density of 1×10^4 cells/mL for DU-145 and at a density of 1×10^5 cells/mL for PC3 and LNCaP, followed by incubation for one hour for attachment.
(§2) Subsequently, each cell line was treated with 100 μM and 200 μM of each of the derivatives of Comparative Examples 1 to 3 and Examples 9 to 16 and the control. In brief, 1% methyl β-cyclodextrin was used as a negative control for cell viability while 0.1% sodium dodecyl sulfate (SDS) served as a positive control. After 48 hours of incubation, the existing culture medium was removed, and 100 μL of fresh culture medium and 10 μL of CCK-8 solution were applied to each cell line. Again, after 48 hours of incubation, the medium solution was replaced by 100 μL of fresh culture medium and 10 μL of CCK-8 solution. The cells were incubated for 4 hours, and then the absorbance was measured at 450 nm to assess cell viability.

The next series has as its system PC3. As to the kind of experiment: Cell viability assay (CCK-8), prostate cancer cell line PC3. It counts as cell-based. On the procedure: as §1, §2
Another series relates to LNCaP. The series can be described thus: Cell viability assay (CCK-8), prostate cancer cell line LNCaP. The format is cell-based. On the procedure:
as §1, §2

The conditions of series [1]: emulsion, same dose; cited from earlier work.
Series [2] can be described thus: Blood concentration over time and pharmacokinetic analysis after single subcutaneous administration (LC/MSMS). The format is in vivo, female SD rats. The following applies: rats, 12.5 mg/kg s.c. once. On the procedure:
The present inventor carried out animal experiments (female SD rats, nine weeks old) in order to examine the increased in vivo half-lives of the prepared fatty acid-conjugated GnRH derivatives. […] DMSO (dimethyl sulfoxide) was used as a solvent as needed. Before administration and at 0.5, 1, 2, and 6 hours and on days 1, 3, 7, 10, 14, 21, and 28 after administration, blood samples were taken from the tail vein of the rats and measured for the blood concentrations of Leuprolide and the derivatives of the Examples, using LC/MSMS. If the concentration reached about 4 ng/mL at a specific time point, no measurements were further made for the next time point.
In the following table, the numerical unit is ng/mL.
The measurement results are graphically depicted in FIGS. 10 to 12. Based on the results, pharmacokinetic analysis was carried out by calculating the half-life (t1/2), clearance rate (CL), volume of distribution (Vd), time to reach the maximum concentration following drug administration (Tmax), maximum concentration following drug administration (Cmax), and systemic exposure to drug (AUCt). The analysis results are as follows.

The conditions of series [3]: cited from earlier work.
Setting [4] is: treatment conc. 200 μM, listed as Comparative Example 3.

Square brackets hold non-standard residues; d marks the D form. Peptide text beside a SMILES is read from it. * marks the point of attachment. Palmitoyl = CCCCCCCCCCCCCCCC(=O)*

In the case of “Arachidic acid-Gln-His-Trp-Ser-Tyr-D-Leu-Leu-Arg-Pro-NHEt ({Arachidic acid}-QHWSY[dL]LRP-NHEt; also: acetate salt) [Example 8]”, the “numbers of secondary or Graafian follicles in the ovary” value (“numbers” for short) with ovary of female rats was “decreased”.
For “Lauric acid-Gln-His-Trp-Ser-Tyr-D-Leu-Leu-Arg-Pro-NHEt ({Lauric acid}-QHWSY[dL]LRP-NHEt; also: acetate salt) [Example 2]”, the “numbers” value in the series with ovary of female rats was “decreased”.
Turning to “Palmitic acid-Glu-His-Trp-Ser-Tyr-D-Leu-Leu-Arg-Pro-NHEt (Palmitoyl-EHWSY[dL]LRP-NHEt; also: acetate salt) [Example 5]”, the “numbers” value in the series with ovary of female rats is given as “decreased”.
In the case of `CC(C)C[C@H](NC(=O)[C@@H](Cc1c[nH]c2ccccc12)NC(=O)[C@H](Cc1ccc(O)cc1)NC(=O)[C@H](CO)NC(=O)[C@H](Cc1c[nH]c2ccccc12)NC(=O)[C@H](Cc1c[nH]cn1)NC(=O)[C@@H]1CCC(=O)N1)C(=O)N[C@@H](CCCNC(=N)N)C(=O)N1CCC[C@H]1C(=O)NCC(N)=O` [C. Example 3, pyroGlu-His-Trp-Ser-Tyr-D-Trp-Leu-Arg-Pro-Gly-NH2], the “Viability of DU-145 relative to negative control 1% methyl-β-cyclodextrin (%)” value in the series with DU-145 (treatment conc. 100 μM) was 100.92 ± 2.98%; in the series with DU-145 (treatment conc. 200 μM), 94.27 ± 3.47%; in the series with DU-145 (setting [4]) it was “about 94%”. The results for the “Viability of PC3 relative to negative control 1% methyl-ß-cyclodextrin (%)” value with PC3 (treatment conc. 100 μM), with PC3 (treatment conc. 200 μM) and in the series with PC3 (setting [4]) were 99.67 ± 3.17%, 95.44 ± 4.03% and “about 95%”, respectively. The entries for the “Viability of LNCaP relative to negative control 1% methyl-β-cyclodextrin (%)” value with LNCaP (treatment conc. 100 μM), in the series on LNCaP (treatment conc. 200 μM) and in the series on LNCaP (setting [4]) were 92.89 ± 4.33%, 90.22 ± 4.03% and “about 90%”, respectively.
Take dexamethasone palmitate: in series [1], the “anti-inflammatory effect relative to dexamethasone alone” value was 5.6 fold.
With “Lauric acid-Glu-His-Trp-Ser-Tyr-D-Leu-Leu-Arg-Pro-NHEt ({Lauric acid}-EHWSY[dL]LRP-NHEt; also: acetate salt) [Example 1]”, the “numbers” value in the series with ovary of female rats is listed as “decreased”.
Consider `CCCCCCCCCCCCCCCC(=O)N[C@@H](CCC(N)=O)C(=O)N[C@@H](Cc1c[nH]cn1)C(=O)N[C@@H](Cc1c[nH]c2ccccc12)C(=O)N[C@@H](CO)C(=O)N[C@@H](Cc1ccc(O)cc1)C(=O)N[C@H](CC(C)C)C(=O)N[C@@H](CC(C)C)C(=O)N[C@@H](CCCNC(=N)N)C(=O)N1CCC[C@H]1C(=O)NCC` [Example 6, Palmitic acid-Gln-His-Trp-Ser-Tyr-D-Leu-Leu-Arg-Pro-NHEt] (Palmitoyl-QHWSY[dL]LRP-NHEt), for which the “Tmax (time to reach the maximum concentration)” value in series [2] turned out to be 6 h. Also, in series [2] (12.5 mg/kg), the “CL (clearance rate)” value is on record as 0.075 (mg/kg)/(ng/mL)/Day, the “Cmax (maximum concentration)” value was determined as 45.7 ng/mL, the “Vd (volume of distribution)” value is 0.436 (mg/kg)/(ng/mL) and the “t1/2 (half-life)” value is 96.7 h.
On to “Arachidic acid-Glu-His-Trp-Ser-Tyr-D-Leu-Leu-Arg-Pro-NHEt ({Arachidic acid}-EHWSY[dL]LRP-NHEt; also: acetate salt) [Example 7]”, for which the “numbers” value with ovary of female rats is recorded as “decreased”.
As for `CC(C)C[C@H](NC(=O)CNC(=O)[C@H](Cc1ccc(O)cc1)NC(=O)[C@H](CO)NC(=O)[C@H](Cc1c[nH]c2ccccc12)NC(=O)[C@H](Cc1cnc[nH]1)NC(=O)[C@@H]1CCC(=O)N1)C(=O)N[C@@H](CCCNC(=N)N)C(=O)N1CCC[C@H]1C(=O)NCC(N)=O` [C. Example 1], in series [3], the “in vivo half-life in circulating blood” value was 2 to 4 min.
`CCCCCCCCCCCCCCCC(=O)N[C@@H](CCC(N)=O)C(=O)N[C@@H](Cc1c[nH]cn1)C(=O)N[C@@H](Cc1c[nH]c2ccccc12)C(=O)N[C@@H](CO)C(=O)N[C@@H](Cc1ccc(O)cc1)C(=O)N[C@H](CC(C)C)C(=O)N[C@@H](CC(C)C)C(=O)N[C@@H](CCCNC(=N)N)C(=O)N1CCC[C@H]1C(=O)NCC` [Example 4, Palmitic acid-Gln-His-Trp-Ser-Tyr-D-Leu-Leu-Arg-Pro-NHEt] (Palmitoyl-QHWSY[dL]LRP-NHEt): in series [2] (female, SD, rat, blood, sc, 12.5 mg/kg, read-out: AUCt (systemic exposure to drug) (converted)), the AUC(0-t) was 5190 ng·h/mL. Further, the Cmax in series [2] (female, SD, rat, blood, sc, 12.5 mg/kg, read-out: Cmax (maximum concentration)) came out at 52.2 ng/mL. Besides, the half-life in series [2] (female, SD, rat, blood, sc, 12.5 mg/kg, read-out: t1/2 (half-life) (converted)) is 115 h. In addition, the Tmax in series [2] (female, SD, rat, blood, sc, read-out: Tmax (time to reach the maximum concentration) (converted)) was 6 h. Besides, in series [2] (12.5 mg/kg), the “CL (clearance rate)” value is recorded as 0.051 (mg/kg)/(ng/mL)/Day and the “Vd (volume of distribution)” value is given as 0.351 (mg/kg)/(ng/mL).
Regarding `CCCCCCCCCCCCOS(=O)(=O)[O-].[Na+]` [Positive Control (0.1% SDS), sodium dodecyl sulfate], the “Viability of DU-145 relative to negative control 1% methyl-β-cyclodextrin (%)” value in the series on DU-145 (positive control, 0.1% SDS) is 18.18 ± 2.32%. The “Viability of PC3 relative to negative control 1% methyl-ß-cyclodextrin (%)” value with PC3 (positive control, 0.1% SDS) turned out to be 15.11 ± 1.72%. Further, the “Viability of LNCaP relative to negative control 1% methyl-β-cyclodextrin (%)” value in the series with LNCaP (positive control, 0.1% SDS) worked out at 20.45 ± 1.58%.
